Test results: PubChem BioAssay AID1963445 (Molecular Pharmacology Branch, DTP, NCI, 2024)

Tested on: MCF7 complex spheroid growth, % test/control
Test: Anticancer human tumor MCF7 cell line growth inhibition [Asc];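 further: spheroids exposed to compounds for 7 days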;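 on viability, T/C: 100% = DMSO vehicle control wells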
Conditions: for IC50: curve of first compound; for viability, T/C: stronger effect = lower value
Method in brief: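 Tumor cells were grown as multicellular spheroids with stromal HUVEC and mesenchymal stem cells and treated singly or in combination. Concentrations fell in half-log steps from the clinical Cmax, or from 10 microM where none was known.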

[1] = second compound 0.00316 µM, first compound 0.0316 µM
[2] = second compound 0.00316 µM, first compound 0.1 µM
[3] = second compound 0.00316 µM, first compound 0.316 µM
[4] = second compound 0.00316 µM, first compound 1 µM
[5] = second compound 0.01 µM, first compound 0.0316 µM
[6] = second compound 0.01 µM, first compound 0.1 µM
[7] = second compound 0.01 µM, first compound 0.316 µM
[8] = second compound 0.01 µM, first compound 1 µM
[9] = second compound 0.0316 µM, first compound 0.0316 µM
[10] = second compound 0.0316 µM, first compound 0.1 µM
[11] = second compound 0.0316 µM, first compound 0.316 µM
[12] = second compound 0.0316 µM, first compound 1 µM
[13] = second compound 0.1 µM, first compound 0.0316 µM
[14] = second compound 0.1 µM, first compound 0.1 µM
[15] = second compound 0.1 µM, first compound 0.316 µM
[16] = second compound 0.1 µM, first compound 1 µM
[17] = second compound 0.316 µM, first compound 0.0316 µM
[18] = second compound 0.316 µM, first compound 0.1 µM
[19] = second compound 0.316 µM, first compound 0.316 µM
[20] = second compound 0.316 µM, first compound 1 µM
[21] = second compound 1 µM, first compound 0.0316 µM
[22] = second compound 1 µM, first compound 0.1 µM
[23] = second compound 1 µM, first compound 0.316 µM
[24] = second compound 1 µM, first compound 1 µM
[25] = second compound 0.00316 µM, first compound 0.00316 µM
[26] = second compound 0.00316 µM, first compound 0.01 µM
[27] = second compound 0.01 µM, first compound 0.00316 µM
[28] = second compound 0.01 µM, first compound 0.01 µM
[29] = second compound 0.0316 µM, first compound 0.00316 µM
[30] = second compound 0.0316 µM, first compound 0.01 µM
[31] = second compound 0.1 µM, first compound 0.00316 µM
[32] = second compound 0.1 µM, first compound 0.01 µM
[33] = second compound 0.316 µM, first compound 0.00316 µM
[34] = second compound 0.316 µM, first compound 0.01 µM
[35] = second compound 1 µM, first compound 0.00316 µM
[36] = second compound 1 µM, first compound 0.01 µM

C=CC(=O)N1CCN(c2nc(=O)n(-c3c(C)ccnc3C(C)C)c3nc(-c4c(O)cccc4F)c(F)cc23)C(C)C1 (stereo unspecified) + CNC(C)C(=O)NC1CN(S(=O)(=O)c2cccc(S(=O)(=O)N3CCC4CCC(C(=O)NC(c5ccccc5)c5ccccc5)N4C(=O)C(NC(=O)C(C)NC)C3)c2)CCC2CCC(C(=O)NC(c3ccccc3)c3ccccc3)N2C1=O
IC50 (second compound 0.00316 µM): < 31.6 nM
IC50 (second compound 0.01 µM): < 31.6 nM
IC50 (second compound 0.0316 µM): < 31.6 nM
IC50 (second compound 0.1 µM): < 31.6 nM
IC50 (second compound 0.316 µM): < 31.6 nM
IC50 (second compound 1 µM): < 31.6 nM
viability, T/C [1]: 68.5%
viability, T/C [2]: 29%
viability, T/C [3]: 30.4%
viability, T/C [4]: 54.8%
viability, T/C (second compound 0.00316 µM, first compound 3.16 µM): 60.5%
viability, T/C (second compound 0.00316 µM, first compound 10 µM): 57.9%
viability, T/C [5]: 20.1%
viability, T/C [6]: 15%
viability, T/C [7]: 13.6%
viability, T/C [8]: 16.9%
viability, T/C (second compound 0.01 µM, first compound 3.16 µM): 29.6%
viability, T/C (second compound 0.01 µM, first compound 10 µM): 46%
viability, T/C [9]: 12.7%
viability, T/C [10]: 14.4%
viability, T/C [11]: 12.5%
viability, T/C [12]: 16.3%
viability, T/C (second compound 0.0316 µM, first compound 3.16 µM): 30.7%
viability, T/C (second compound 0.0316 µM, first compound 10 µM): 36.6%
viability, T/C [13]: 14.1%
viability, T/C [14]: 12%
viability, T/C [15]: 16.8%
viability, T/C [16]: 16.2%
viability, T/C (second compound 0.1 µM, first compound 3.16 µM): 20.2%
viability, T/C (second compound 0.1 µM, first compound 10 µM): 33%
viability, T/C [17]: 14.5%
viability, T/C [18]: 13.5%
viability, T/C [19]: 15.2%
viability, T/C [20]: 12.1%
viability, T/C (second compound 0.316 µM, first compound 3.16 µM): 18.6%
viability, T/C (second compound 0.316 µM, first compound 10 µM): 33.7%
viability, T/C [21]: 13%
viability, T/C [22]: 12.8%
viability, T/C [23]: 11.7%
viability, T/C [24]: 14.8%
viability, T/C (second compound 1 µM, first compound 3.16 µM): 16.5%
viability, T/C (second compound 1 µM, first compound 10 µM): 28.9%

COc1c(OCCCN2CCOCC2)ccc2c3n(c(=NC(=O)c4cnc(N)nc4)nc12)CCN3 + CNC(C)C(=O)NC1CN(S(=O)(=O)c2cccc(S(=O)(=O)N3CCC4CCC(C(=O)NC(c5ccccc5)c5ccccc5)N4C(=O)C(NC(=O)C(C)NC)C3)c2)CCC2CCC(C(=O)NC(c3ccccc3)c3ccccc3)N2C1=O
IC50 (second compound 0.00316 µM): 3.2 nM
IC50 (second compound 0.01 µM): < 3.16 nM
IC50 (second compound 0.0316 µM): < 3.16 nM
IC50 (second compound 0.1 µM): < 3.16 nM
IC50 (second compound 0.316 µM): < 3.16 nM
IC50 (second compound 1 µM): < 3.16 nM
viability, T/C [25]: 50.2%
viability, T/C [26]: 35.3%
viability, T/C [1]: 14.7%
viability, T/C [2]: 8.43%
viability, T/C [3]: 8.17%
viability, T/C [4]: 8.35%
viability, T/C [27]: 10.9%
viability, T/C [28]: 9.75%
viability, T/C [5]: 9.42%
viability, T/C [6]: 8.15%
viability, T/C [7]: 6.06%
viability, T/C [8]: 8.55%
viability, T/C [29]: 12.6%
viability, T/C [30]: 10.9%
viability, T/C [9]: 9.42%
viability, T/C [10]: 9.87%
viability, T/C [11]: 7.86%
viability, T/C [12]: 8.09%
viability, T/C [31]: 13.9%
viability, T/C [32]: 11.1%
viability, T/C [13]: 10.8%
viability, T/C [14]: 12%
viability, T/C [15]: 10.7%
viability, T/C [16]: 8.86%
viability, T/C [33]: 11.8%
viability, T/C [34]: 9.96%
viability, T/C [17]: 10.1%
viability, T/C [18]: 10%
viability, T/C [19]: 8.17%
viability, T/C [20]: 8.52%
viability, T/C [35]: 11.3%
viability, T/C [36]: 9.91%
viability, T/C [21]: 13%
viability, T/C [22]: 10.5%
viability, T/C [23]: 9.23%
viability, T/C [24]: 9.11%

NC1CCC(NC2CC2c2ccccc2)CC1 (stereo unspecified) + CNC(C)C(=O)NC1CN(S(=O)(=O)c2cccc(S(=O)(=O)N3CCC4CCC(C(=O)NC(c5ccccc5)c5ccccc5)N4C(=O)C(NC(=O)C(C)NC)C3)c2)CCC2CCC(C(=O)NC(c3ccccc3)c3ccccc3)N2C1=O
IC50 (second compound 0.00316 µM): < 0.316 nM
IC50 (second compound 0.01 µM): < 0.316 nM
IC50 (second compound 0.0316 µM): < 0.316 nM
IC50 (second compound 0.1 µM): < 0.316 nM
IC50 (second compound 0.316 µM): < 0.316 nM
IC50 (second compound 1 µM): < 0.316 nM
viability, T/C (second compound 0.00316 µM, first compound 0.000316 µM): 23.3%
viability, T/C (second compound 0.00316 µM, first compound 0.001 µM): 18.5%
viability, T/C [25]: 16.4%
viability, T/C [26]: 21.6%
viability, T/C [1]: 18.2%
viability, T/C [2]: 22.6%
viability, T/C (second compound 0.01 µM, first compound 0.000316 µM): 11.9%
viability, T/C (second compound 0.01 µM, first compound 0.001 µM): 12.3%
viability, T/C [27]: 12.2%
viability, T/C [28]: 10.7%
viability, T/C [5]: 10.4%
viability, T/C [6]: 10.8%
viability, T/C (second compound 0.0316 µM, first compound 0.000316 µM): 11.2%
viability, T/C (second compound 0.0316 µM, first compound 0.001 µM): 9.92%
viability, T/C [29]: 10.8%
viability, T/C [30]: 10.2%
viability, T/C [9]: 10.9%
viability, T/C [10]: 11.9%
viability, T/C (second compound 0.1 µM, first compound 0.000316 µM): 13.9%
viability, T/C (second compound 0.1 µM, first compound 0.001 µM): 12.6%
viability, T/C [31]: 12.5%
viability, T/C [32]: 10.5%
viability, T/C [13]: 13.6%
viability, T/C [14]: 13.8%
viability, T/C (second compound 0.316 µM, first compound 0.000316 µM): 11.4%
viability, T/C (second compound 0.316 µM, first compound 0.001 µM): 16.8%
viability, T/C [33]: 16.9%
viability, T/C [34]: 15.8%
viability, T/C [17]: 12%
viability, T/C [18]: 14.2%
viability, T/C (second compound 1 µM, first compound 0.000316 µM): 13.1%
viability, T/C (second compound 1 µM, first compound 0.001 µM): 12.3%
viability, T/C [35]: 13.9%
viability, T/C [36]: 15.8%
viability, T/C [21]: 15%
viability, T/C [22]: 10.2%
